The record followed here is patent US12545685B2 (Daiichi Sankyo Company, Limited, priority 2011, dated 2026).

T1 sequence (Q00987 25-108 L33E): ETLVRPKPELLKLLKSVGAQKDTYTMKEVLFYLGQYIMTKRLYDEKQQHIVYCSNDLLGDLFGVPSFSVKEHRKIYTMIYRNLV

The assay addresses T1, Mdm2/p53 binding (GST-Mdm2 / His-p53) (Homo sapiens, UniProt Q00987, L33E).
T1 construct: Mdm2 partial protein having Mdm2 amino acids at positions 25 to 108
Put plainly: Mdm2/p53 binding assay (HTRF, His-p53 and GST-Mdm2). The following applies: His-p53 (aa 1-132) and GST-Mdm2 (aa 25-108, L33E) 6.25 nM each; 25°C, 1 hour; values given as ranges. The essentials: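 His-p53 (aa 1–132) and GST-Mdm2 (aa 25–108, L33E) were prepared at 6.25 nM each in the protein dilution (20 mM HEPES pH 7.4, 150 mM NaCl, 0.1% BSA). Compound in 10% DMSO buffer and XL665 anti-His/Eu anti-GST antibodies (KF buffer) were added, with 1 h at 25 °C. The 665/620 nm TR-FRET ratio gave T/C and a sigmoid-fitted IC50.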
For orientation: IC50 means the concentration needed to halve the response being measured. Higher therefore signals lower potency. Take `CO[C@]1(CO)CC[C@@H](NC(=O)[C@@H]2NC3(CCC(C)(C)CC3)[C@@]3(C(=O)Nc4nc(Cl)ccc43)[C@H]2c2ccnc(Cl)c2F)CC1` [Example 82, (3′R, 4′S,5′R)-6″-chloro-4′-(2-chloro-3-fluoropyridin-4-yl)-N-[trans-4-(hydroxymethyl)-4-methoxycyclohexyl]-4,4-dimethyl-2″-oxo-1″,2′-dihydrodispiro[cyclohexane-1,2′-pyrrolidine-3′,3″-pyrrolo[2,3-b]pyridine]-5′-carboxamide]: the IC50 fell in the range of 1 to 50 nM.
`CO[C@]1(CO)CC[C@H](NC(=O)[C@@H]2NC3(CCC(C)(C)CC3)[C@@]3(C(=O)Nc4nc(Cl)ccc43)[C@H]2c2ccnc(Cl)c2F)CC1` [Example 83, (3′R, 4′S,5′R)-6″-chloro-4′-(2-chloro-3-fluoropyridin-4-yl)-N-[cis-4-(hydroxymethyl)-4-methoxycyclohexyl]-4,4-dimethyl-2″-oxo-1″,2″-dihydrodispiro[cyclohexane-1,2′-pyrrolidine-3′,3″-pyrrolo[2,3-b]pyridine]-5′-carboxamide] came in with an IC50 of 1 to 50 nM.
With `O=C(N[C@@H]1CC[C@@H](CO)OC1)[C@@H]1NC2(CC(CF)(CF)C2)[C@@]2(C(=O)Nc3nc(Cl)ccc32)[C@H]1c1cccc(Cl)c1F` [Example 84, (3′R, 4′S,5′R)-6″-chloro-4′-(3-chloro-2-fluorophenyl)-3,3-bis(fluoromethyl)-N-[(3R,6S)-6-(hydroxymethyl)tetrahydro-2H-pyran-3-yl]-2″-oxo-1″,2″-dihydrodispiro[cyclobutane-1,2′-pyrrolidine-3′,3″-pyrrolo[2,3-b]pyridine]-5′-carboxamide] the figure was 50 to 100 nM.
`CC1(C)CCC2(CC1)N[C@@H](C(=O)N[C@H]1CC[C@](O)(CS(C)(=O)=O)CC1)[C@H](c1ccnc(Cl)c1F)[C@]21C(=O)Nc2cc(Cl)ccc21` [Example 87, (3′R, 4′S,5′R)-6″-chloro-4′-(2-chloro-3-fluoropyridin-4-yl)-N-{cis-4-hydroxy-4-[(methylsulfonyl)methyl]cyclohexyl}-4,4-dimethyl-2″-oxo-1″,2′-dihydrodispiro[cyclohexane-1,2′-pyrrolidine-3′,3″-indole]-5′-carboxamide] yielded an IC50 of 1 to 50 nM.
In the case of `O=C(N[C@@H]1CC[C@@H](CO)OC1)[C@@H]1NC2(CC(CF)(CF)C2)[C@@]2(C(=O)Nc3cc(Cl)ccc32)[C@H]1c1ccnc(Cl)c1F` [Example 91, (3′R, 4′S,5′R)-6″-chloro-4′-(2-chloro-3-fluoropyridin-4-yl)-3,3-bis(fluoromethyl)-N-[(3R,6S)-6-(hydroxymethyl)tetrahydro-2H-pyran-3-yl]-2″-oxo-1″,2″-dihydrodispiro[cyclobutane-1,2′-pyrrolidine-3′,3″-indole]-5′-carboxamide], the IC50 was in the range of 50 to 100 nM.
`CC1(C)CCC2(CC1)N[C@@H](C(=O)N[C@@H]1CC[C@@H](CO)OC1)[C@H](c1cncc(Cl)c1)[C@]21C(=O)Nc2cc(Cl)ccc21` [Example 92, (3′R, 4′R, 5′R)-6″-chloro-4′-(5-chloropyridin-3-yl)-N-[(3R,6S)-6-(hydroxymethyl)tetrahydro-2H-pyran-3-yl]-4,4-dimethyl-2″-oxo-1″,2″-dihydrodispiro[cyclohexane-1,2′-pyrrolidine-3′,3″-indole]-5′-carboxamide] yielded an IC50 of 1 to 50 nM.
`O=C(N[C@H]1CC[C@H](c2nnco2)CC1)[C@@H]1NC2(CC(CF)(CF)C2)[C@@]2(C(=O)Nc3cc(Cl)ccc32)[C@H]1c1ccnc(Cl)c1F` [Example 95, (3′R, 4′S,5′R)-6″-chloro-4′-(2-chloro-3-fluoropyridin-4-yl)-3,3-bis(fluoromethyl)-N-[trans-4-(1,3,4-oxadiazol-2-yl)cyclohexyl]-2″-oxo-1″,2′-dihydrodispiro[cyclobutane-1,2′-pyrrolidine-3′,3″-indole]-5′-carboxamide] showed an IC50 of 50 to 100 nM.
Compound `CC1(C)CCC2(CC1)N[C@@H](C(=O)N[C@@H]1CC[C@@H](CS(C)(=O)=O)OC1)[C@H](c1ccnc(Cl)c1F)[C@]21C(=O)Nc2cc(Cl)ccc21` [Example 98, (3′R, 4′S,5′R)-6″-chloro-4′-(2-chloro-3-fluoropyridin-4-yl)-4,4-dimethyl-N-{(3R,6S)-6-[(methylsulfonyl)methyl]tetrahydro-2H-pyran-3-yl}-2″-oxo-1″,2″-dihydrodispiro[cyclohexane-1,2′-pyrrolidine-3′,3″-indole]-5′-carboxamide] came in with an IC50 of 50 to 100 nM.
`CNC(=O)[C@@H]1CC[C@@H](NC(=O)[C@@H]2NC3(CCC(C)(C)CC3)[C@@]3(C(=O)Nc4nc(Cl)ccc43)[C@H]2c2ccnc(Cl)c2F)CO1` [Example 101, (3′R, 4′S,5′R)-6″-chloro-4′-(2-chloro-3-fluoropyridin-4-yl)-4,4-dimethyl-N-[(3R,6S)-6-(methylcarbamoyl)tetrahydro-2H-pyran-3-yl]-2″-oxo-1″,2″-dihydrodispiro[cyclohexane-1,2′-pyrrolidine-3′,3″-pyrrolo[2,3-b]pyridine]-5′-carboxamide]: the IC50 was in the range of 1 to 50 nM.
For the compound `CC1(C)CCC2(CC1)N[C@@H](C(=O)N[C@@H]1CC[C@@H](C(=O)NC3CC3)OC1)[C@H](c1ccnc(Cl)c1F)[C@]21C(=O)Nc2nc(Cl)ccc21` [Example 102, (3′R, 4′S,5′R)-6″-chloro-4′-(2-chloro-3-fluoropyridin-4-yl)-N-[(3R,6S)-6-(cyclopropylcarbamoyl)tetrahydro-2H-pyran-3-yl]-4,4-dimethyl-2″-oxo-1″,2″-dihydrodispiro[cyclohexane-1,2′-pyrrolidine-3′,3″-pyrrolo[2,3-b]pyridine]-5′-carboxamide], the IC50 lay within 1 to 50 nM.
The figure for `CC1(C)CCC2(CC1)N[C@@H](C(=O)N[C@@H]1CC[C@@H](C(=O)NCCO)OC1)[C@H](c1ccnc(Cl)c1F)[C@]21C(=O)Nc2cc(Cl)ccc21` [Example 103, (3′R, 4′S,5′R)-6″-chloro-4′-(2-chloro-3-fluoropyridin-4-yl)-N-{(3R,6S)-6-[(2-hydroxyethyl)carbamoyl]tetrahydro-2H-pyran-3-yl}-4,4-dimethyl-2″-oxo-1″,2″-dihydrodispiro[cyclohexane-1,2′-pyrrolidine-3′,3″-indole]-5′-carboxamide] is 1 to 50 nM; for `CN(C)C(=O)[C@@H]1CC[C@@H](NC(=O)[C@@H]2NC3(CCC(C)(C)CC3)[C@@]3(C(=O)Nc4nc(Cl)ccc43)[C@H]2c2ccnc(Cl)c2F)CO1` [Example 104, (3′R, 4′S,5′R)-6″-chloro-4′-(2-chloro-3-fluoropyridin-4-yl)-N-[(3R,6S)-6-(dimethylcarbamoyl)tetrahydro-2H-pyran-3-yl]-4,4-dimethyl-2″-oxo-1″,2″-dihydrodispiro[cyclohexane-1,2′-pyrrolidine-3′,3″-pyrrolo[2,3-b]pyridine]-5′-carboxamide] it is 1 to 50 nM.
Compound `C[C@H]1O[C@H](CO)CC[C@H]1NC(=O)[C@@H]1NC2(CCC(C)(C)CC2)[C@@]2(C(=O)Nc3cc(Cl)ccc32)[C@H]1c1ccnc(Cl)c1F` [Example 105, (3′R, 4′S,5′R)-6″-chloro-4′-(2-chloro-3-fluoropyridin-4-yl)-N-[(2R,3R,6S)-6-(hydroxymethyl)-2-methyltetrahydro-2H-pyran-3-yl]-4,4-dimethyl-2″-oxo-1″,2″-dihydrodispiro[cyclohexane-1,2′-pyrrolidine-3′,3″-indole]-5′-carboxamide] had an IC50 of 1 to 50 nM.
With `CC1(C)CCC2(CC1)N[C@@H](C(=O)N[C@@H]1CC[C@@H](C(=O)N3CCC3)OC1)[C@H](c1ccnc(Cl)c1F)[C@]21C(=O)Nc2cc(Cl)ccc21` [Example 106, (3′R, 4+S,5′R)—N-[(3R,6S)-6-(azetidin-1-ylcarbonyl)tetrahydro-2H-pyran-3-yl]-6″-chloro-4′-(2-chloro-3-fluoropyridin-4-yl)-4,4-dimethyl-2″-oxo-1″,2″-dihydrodispiro[cyclohexane-1,2′-pyrrolidine-3′,3″-indole]-5H-carboxamide], the IC50 lay within 1 to 50 nM.
`CCNC(=O)[C@H]1C[C@H](NC(=O)[C@@H]2NC3(CCC(C)(C)CC3)[C@@]3(C(=O)Nc4cc(Cl)ccc43)[C@H]2c2ccnc(Cl)c2F)C1` [Example 118, (3′R,4′S,5′R)-6″-chloro-4′-(2-chloro-3-fluoropyridin-4-yl)-N-[trans-3-(ethylcarbamoyl)cyclobutyl]-4,4-dimethyl-2″-oxo-1″,2″-dihydrodispiro[cyclohexane-1,2′-pyrrolidine-3′,3″-indole]-5′-carboxamide] gave an IC50 of 1 to 50 nM.
Take `CC1(C)CCC2(CC1)N[C@@H](C(=O)N[C@H]1C[C@H](CO)C1)[C@H](c1ccnc(Cl)c1F)[C@]21C(=O)Nc2cc(Cl)ccc21` [Example 119, (3′R,4′S,5′R)-6″-chloro-4′-(2-chloro-3-fluoropyridin-4-yl)-N-[trans-3-(hydroxymethyl)cyclobutyl]-4,4-dimethyl-2″-oxo-1″,2″-dihydrodispiro[cyclohexane-1,2′-pyrrolidine-3′,3″-indole]-5′-carboxamide]: the IC50 fell in the range of 1 to 50 nM.
With `CC1(C)CCC2(CC1)N[C@@H](C(=O)N[C@H]1C[C@H](C(=O)NC3CCOCC3)C1)[C@H](c1ccnc(Cl)c1F)[C@]21C(=O)Nc2cc(Cl)ccc21` [Example 120, (3′R, 4′S,5′R)-6″-chloro-4′-(2-chloro-3-fluoropyridin-4-yl)-4,4-dimethyl-2″-oxo-N-[trans-3-(tetrahydro-2H-pyran-4-ylcarbamoyl)cyclobutyl]-1″,2″-dihydrodispiro[cyclohexane-1,2′-pyrrolidine-3′,3″-indole]-5′-carboxamide], the IC50 was 1 to 50 nM.
As for `NC(=O)[C@@H]1CC[C@@H](NC(=O)[C@@H]2NC3(CC(CF)(CF)C3)[C@@]3(C(=O)Nc4cc(Cl)ccc43)[C@H]2c2cccc(Cl)c2F)CO1` [Example 122, (3′R, 4′S,5′R)—N-[(3R, 6S)-6-carbamoyltetrahydro-2H-pyran-3-yl]-6″-chloro-4′-(3-chloro-2-fluorophenyl)-3,3-bis(fluoromethyl)-2″-oxo-1″,2″-dihydrodispiro[cyclobutane-1,2-pyrrolidine-3′,3″-indole]-5′-carboxamide], the IC50 fell in the range of 1 to 50 nM.
